Source: patent publication EP0092073A1, “Magnesium salt of chenodeoxycholic acid and ursodeoxycholic acid, the process for its preparation, and therapeutic compositions which contain it as active principle” (SCHWARZ ITALIA S.p.A., priority 1982, dated 1983)
Read-outs that look alike come from different tables or passages of the source.

Key:
[1] = Acute lethality and toxicity, oral administration (gastric probe); type: in vivo, Mus musculus; parameters: key to Toxic symptomatology Type: NN = no symptomatology; D = depression; conditions: in vivo, po; for mortality at 24 h / mortality at 168 h: oral; for mortality at 24 h: read-out: % mortality at following times after administration 24 h; for mortality at 168 h: read-out: % mortality at following times after administration 7 days; for LD50 at 168 h: probit method, read-out: LD50 (mg/kg with reliability limits) 7 days after treatment
Protocol: (§1) Unless otherwise specified, the research was carried out using: a) Mg-UCD capsules as such; b) the powdered contents of Mg-UCD capsules; CDCA (chenodeoxycholic acid) and UDCA (ursodeoxycholic acid) as pure substance which in all cases was partly dissolved and partly suspended under warm conditions (T = 30°C) in 10% gum arabic mucilage (so as to administer 10-40 ml of liquid per kg orally). In certain cases, namely in the experiments involving parenteral administration, the active principle of Mg-UCD, the chenodeoxycholic acid and ursodeoxycholic acid were dissolved in distilled water of slightly alkaline pH (5-10 ml/kg).
(§2) The generally acute lethality, toxicity and tolerability were determined by oral administration of the Mg-UCD (by gastric probe) in the Mus musculus, rat and dog. Animals of both sexes were used, none of which were pregnant. They were fasted for about 12 hours before treatment (but allowing them free access to water). The investigations were carried out using the Mg-UCD in powder form. Comparative investigations were carried out on the rat and Mus musculus using the active principle by endoperitoneal administration, and chenodeoxycholic acid and ursodeoxycholic acid by oral administration (using a gastric probe). Each dose was administered to 20 rats or Mus musculus (10 male and 10 female) and to eight dogs (4 male and 4 female). The animals were observed attentively during the 7 days following administration, and any lethality, toxic symptoms, disturbances, functional variations determinable with the eye, behaviour etc. were noted.
(§3) The LD50 was determined 7 days after administration using the probit method.

Mus musculus = assay: as above; type: in vivo; parameters: key to Toxic symptomatology Type: NN = no symptomatology; D = depression; conditions: oral
Protocol: as §1, §2, §3

rat = assay: as above; type: in vivo; parameters: key to Toxic symptomatology Type: NN = no symptomatology; D = depression; conditions: oral
Protocol: as §1, §2, §3

hampsters [2] = assay: Action on the formation of cholesterol calculi in the gall-bladder (cholesterol-enriched diet, 80 days); type: in vivo; conditions: female hampsters; for % animals with calculi / % animals with crystals: cholesterol-enriched diet
Protocol: (§4) The investigations were carried out on hampsters (of female sex, but excluding those in a state of pregnancy) having an initial weight of 75-90 g. They were treated for 80 days with oral administration (by gastric probe) of MG-UCD (10-20 mg/kg/day), chenodeoxycholic acid (10-20 mg/kg/day) or ursodeoxycholic acid (10-20 mg/kg/day) (Tables 4 and 5). The animals were maintained for 80 consecutive days on a Nossan feed diet for rats, enriched with cholesterol (2 mg/g of food).
(§5) Each experimental group consisted of 10 units. After 80 days, the animals were narcotised with ethyl ether, and the bile was withdrawn, together with the calculi and crystals from the gall-bladder as described by Pearlman and coll. in Gastroenterology 77, 634 (1979).

hampsters [3] = assay: Bile lipid and bile acid contents of the bile (cholesterol-enriched diet, 80 days); type: in vivo
Protocol: as §4, §5
The bile acid, phospholipid, cholesterol, cholic acid, chenodeoxycholic acid, ursodeoxycholic acid, DCA (deoxycholic acid) and LCA (lithocholic acid) contents were evaluated in the bile by the methods described by Pearlman and coll. (see above).

patients = assay: Controlled study in comparison with the free acids; tolerability in patients; type: in vivo; conditions: patients
[4] = mouse, 2000 mg/kg, M. musculus F, 2000 mg/kg
[5] = mouse, 2000 mg/kg, M. musculus M, 2000 mg/kg
[6] = mouse, 4000 mg/kg, M. musculus F, 4000 mg/kg
[7] = mouse, 4000 mg/kg, M. musculus M, 4000 mg/kg
[8] = mouse, 8000 mg/kg, M. musculus F, 8000 mg/kg
[9] = mouse, 8000 mg/kg, M. musculus M, 8000 mg/kg
[10] = rat, 2000 mg/kg, Rat F, 2000 mg/kg
[11] = rat, 2000 mg/kg, Rat M, 2000 mg/kg
[12] = rat, 4000 mg/kg, Rat F, 4000 mg/kg
[13] = rat, 4000 mg/kg, Rat M, 4000 mg/kg
[14] = rat, 8000 mg/kg, Rat F, 8000 mg/kg
[15] = rat, 8000 mg/kg, Rat M, 8000 mg/kg

C[C@H](CCC(=O)O)[C@H]1CC[C@H]2[C@@H]3[C@H](O)C[C@@H]4C[C@H](O)CC[C@]4(C)[C@H]3CC[C@]12C [Chenodeoxycholic acid, 17β-(1-methyl-3-carboxypropyl)-ethiocholane-3α, 7α-diol]
mortality at 24 h [1, 4]: 0% | mortality at 168 h [1, 4]: 0% | mortality at 24 h [1, 5]: 0% | mortality at 168 h [1, 5]: 0% | mortality at 24 h [1, 6]: 30% | mortality at 168 h [1, 6]: 30% | mortality at 24 h [1, 7]: 30% | mortality at 168 h [1, 7]: 30% | mortality at 24 h [1, 8]: 80% | mortality at 168 h [1, 8]: 80% | mortality at 24 h [1, 9]: 80% | mortality at 168 h [1, 9]: 80% | LD50 at 168 h ([1]; mouse, M. musculus F): 5280 mg/kg | LD50 at 168 h ([1]; mouse, M. musculus M): 5280 mg/kg | mortality at 24 h [1, 10]: 0% | mortality at 168 h [1, 10]: 0% | mortality at 24 h [1, 11]: 0% | mortality at 168 h [1, 11]: 0% | mortality at 24 h [1, 12]: 30% | mortality at 168 h [1, 12]: 30% | mortality at 24 h [1, 13]: 40% | mortality at 168 h [1, 13]: 40% | mortality at 24 h [1, 14]: 90% | mortality at 168 h [1, 14]: 90% | mortality at 24 h [1, 15]: 80% | mortality at 168 h [1, 15]: 80% | LD50 at 168 h ([1]; rat, Rat F): 4890 mg/kg | LD50 at 168 h ([1]; rat, Rat M): 4010 mg/kg | Toxic symptomatology Latency (Mus musculus; M. musculus F, 2000 mg/kg): 5-10 min | Toxic symptomatology Type (Mus musculus; M. musculus F, 2000 mg/kg): D | Toxic symptomatology Latency (Mus musculus; M. musculus F, 4000 mg/kg): 5-10 min | Toxic symptomatology Type (Mus musculus; M. musculus F, 4000 mg/kg): D | Toxic symptomatology Latency (Mus musculus; M. musculus F, 8000 mg/kg): 5-10 min | Toxic symptomatology Type (Mus musculus; M. musculus F, 8000 mg/kg): D | Toxic symptomatology Latency (Mus musculus; M. musculus M, 2000 mg/kg): 5-10 min | Toxic symptomatology Type (Mus musculus; M. musculus M, 2000 mg/kg): D | Toxic symptomatology Latency (Mus musculus; M. musculus M, 4000 mg/kg): 5-10 min | Toxic symptomatology Type (Mus musculus; M. musculus M, 4000 mg/kg): D | Toxic symptomatology Latency (Mus musculus; M. musculus M, 8000 mg/kg): 5-10 min | Toxic symptomatology Type (Mus musculus; M. musculus M, 8000 mg/kg): D | Toxic symptomatology Latency (rat; Rat F, 2000 mg/kg): 5-10 min | Toxic symptomatology Type (rat; Rat F, 2000 mg/kg): D | Toxic symptomatology Latency (rat; Rat F, 4000 mg/kg): 5-10 min | Toxic symptomatology Type (rat; Rat F, 4000 mg/kg): D | Toxic symptomatology Latency (rat; Rat F, 8000 mg/kg): 5-10 min | Toxic symptomatology Type (rat; Rat F, 8000 mg/kg): D | Toxic symptomatology Latency (rat; Rat M, 2000 mg/kg): 5-10 min | Toxic symptomatology Type (rat; Rat M, 2000 mg/kg): D | Toxic symptomatology Latency (rat; Rat M, 4000 mg/kg): 5-10 min | Toxic symptomatology Type (rat; Rat M, 4000 mg/kg): D | Toxic symptomatology Latency (rat; Rat M, 8000 mg/kg): 5-10 min | Toxic symptomatology Type (rat; Rat M, 8000 mg/kg): D | % animals with calculi (hampsters [2]; 10 mg/kg/day oral for 80 days): 50% | % animals with crystals (hampsters [2]; 10 mg/kg/day oral for 80 days): 30% | % animals with calculi (hampsters [2]; 20 mg/kg/day oral for 80 days): 0% | % animals with crystals (hampsters [2]; 20 mg/kg/day oral for 80 days): 0% | Body weight (g ± s.e.) after following days 80 (hampsters [2]; day 80, oral, 10 mg/kg/day): 148 ± 9 g | Bile acids (expressed as molar % ± s.e.) Cheno-deoxycholic acid (hampsters [3]; 10 mg/kg/day oral for 80 days): 42.1 ± 3.6 molar % | Bile acids (expressed as molar % ± s.e.) Cholic acid (hampsters [3]; 10 mg/kg/day oral for 80 days): 29.6 ± 2.6 molar % | Bile acids (expressed as molar % ± s.e.) DCA (hampsters [3]; 10 mg/kg/day oral for 80 days): 12.7 ± 0.6 molar % | Bile acids (expressed as molar % ± s.e.) LCA (hampsters [3]; 10 mg/kg/day oral for 80 days): 3.2 ± 0.1 molar % | Bile acids (expressed as molar % ± s.e.) Urso-deoxycholic acid (hampsters [3]; 10 mg/kg/day oral for 80 days): 6.6 ± 0.4 molar % | Bile lipids (expressed as molar % ± s.e.) Bile acids (hampsters [3]; 10 mg/kg/day oral for 80 days): 79.5 ± 5.6 molar % | Bile lipids (expressed as molar % ± s.e.) Cholesterol (hampsters [3]; 10 mg/kg/day oral for 80 days): 7.2 ± 0.2 molar % | Bile lipids (expressed as molar % ± s.e.) Phospho-lipids (hampsters [3]; 10 mg/kg/day oral for 80 days): 16.0 ± 1.8 molar % | Bile acids (expressed as molar % ± s.e.) Cheno-deoxycholic acid (hampsters [3]; 20 mg/kg/day oral for 80 days): 66.0 ± 4.7 molar % | Bile acids (expressed as molar % ± s.e.) Cholic acid (hampsters [3]; 20 mg/kg/day oral for 80 days): 18.7 ± 2.1 molar % | Bile acids (expressed as molar % ± s.e.) DCA (hampsters [3]; 20 mg/kg/day oral for 80 days): 10.4 ± 0.2 molar % | Bile acids (expressed as molar % ± s.e.) LCA (hampsters [3]; 20 mg/kg/day oral for 80 days): 3.4 ± 0.3 molar % | Bile acids (expressed as molar % ± s.e.) Urso-deoxycholic acid (hampsters [3]; 20 mg/kg/day oral for 80 days): 7.8 ± 0.3 molar % | Bile lipids (expressed as molar % ± s.e.) Bile acids (hampsters [3]; 20 mg/kg/day oral for 80 days): 80.2 ± 3.8 molar % | Bile lipids (expressed as molar % ± s.e.) Cholesterol (hampsters [3]; 20 mg/kg/day oral for 80 days): 5.9 ± 0.3 molar % | Bile lipids (expressed as molar % ± s.e.) Phospho-lipids (hampsters [3]; 20 mg/kg/day oral for 80 days): 15.8 ± 1.3 molar % | side effects (patients): diarrhoea, and, in certain cases, transaminase increase
